Literature values as cited in patent US20160000504A1, “METHOD FOR TRAINING IMMUNE CELLS USING MILLIMETER WAVE THERAPY” (Electrohealing Holdings, Inc., priority 2014, published 2016).
Where a name gives a salt, the structure may show the parent alone.

Tested on: B16 melanoma cells
Settings: 1 mg per kg thirty minutes prior to each treatment; MMWT 61.22 GHz, 5 day delay before first irradiation; groups seven and eight vs three and four (FIG. 2A vs FIG. 2B)

For `C=CCN1CC[C@]23c4c5ccc(O)c4O[C@H]2C(=O)CC[C@@]3(O)[C@H]1C5` [naloxone hydrochloride], the “change in tumor size: effect of opioid antagonist on MMWT inhibition of tumor growth” value is listed as “blocks the beneficial effects of MMWT”.
